For 92 compounds, IC50 results are on record in PubChem BioAssay AID1159560 (GlaxoSmithKline (GSK), 2015).

Calls of active or inactive are those of the source. No rule for the calls is given here. Bounds are passed on as bounds.

For the assay, the system named is Leishmania donovani growth inhibition. Description: antileishmanial activity against L. donovani parasites (AID 1159560).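 Also: parasites exposed to compound for 72 h before the viability read.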
In general, IC50 refers to the midpoint of a concentration-inhibition curve. Turning to `CCc1ccccc1[C@@H](C)NC(=O)c1cnc2c(cnn2CC)c1NC1CCN(C(N)=O)CC1`, the IC50 is > 50 µM (inactive).

`CC(C)C[C@H](NC(=O)c1ccc(-c2ccccc2)o1)C(=O)NC1(C#N)CC1`: the IC50 was > 50 µM (inactive).

As to `O=S(=O)(c1cccc(CSc2nnc(-c3ccc4c(c3)OCO4)o2)c1)N1CCOCC1`, the IC50 was 0.5 µM.

Turning to `N#Cc1ccc(S(=O)(=O)N2CCC3(CCN(c4ccccc4)C3=O)CC2)cc1`, the IC50 is > 50 µM (inactive).

For the compound `O=c1[nH]ccc2ccc(-c3ccncc3)cc12`, the IC50 was > 50 µM (inactive).

Consider `CCOc1cnn(C)c(=O)c1Nc1ccc(C(=O)NCc2ccc(F)cc2)cc1`, for which the IC50 is 32 µM.

In the case of `Cc1ncsc1CNc1cnc(-c2ccc3c(c2)OCCO3)c(-c2cnn(C)c2)c1`, the IC50 is 25 µM.

For the compound `COc1cc(-c2noc(CC#N)n2)ccc1OC(F)F`, the IC50 was > 50 µM (inactive).

Turning to `CCOc1ccc(CN(C)Cc2nc(N)nc(Nc3ccc(C)cc3)n2)cc1`, the 50% inhibitory concentration (IC50) is 32 µM.

As for `CCn1c(-c2nonc2N)nc2c([C@@H](C)O)ncc(O[C@H](CN)c3ccccc3)c21`, the IC50 was 20 µM.

Consider `CC(=Cc1ccccc1)CN1CCC(=O)N(Cc2cccnc2)CC1`, for which the IC50 was > 50 µM (inactive).

For the compound `CCC(=O)Nc1ccc(-c2nc3ccc(Cl)cc3[nH]2)cc1`, the IC50 is > 50 µM (inactive).

For `CCCCn1nnnc1CSc1nc(C)cc(C)c1C#N`, the IC50 is 1.3 µM.

As for `O=C(Nc1ccc(Br)cn1)c1ccc(Cn2cnc([N+](=O)[O-])n2)cc1`, the IC50 is > 50 µM (inactive).

For the compound `NC(=O)c1cc(F)ccc1Nc1nc(NC2CCC(O)CC2)ncc1Cl` (configuration not stated), the IC50 was 3.2 µM.

For `O=C(CC1(O)C(=O)N(Cc2ccccc2)c2ccc(Br)cc21)c1cccnc1` (configuration not stated), the IC50 is > 50 µM (inactive).

For the compound `COc1ccc([N+](=O)[O-])cc1NC(=O)Nc1cccc(Cl)c1`, the IC50 is > 50 µM (inactive).

`COc1ccccc1-n1c(SCC(=O)Nc2ccc3c(c2)OCO3)nc2c(c1=O)SCC2`: the IC50 was 10 µM.

For the compound `CNc1c(C(N)=O)c(-c2ccc3scnc3c2)nn1CC(F)(F)F`, the IC50 was > 50 µM (inactive).

`Cc1cc(NC(=O)CC2CCCCC2)n(-c2nc3c(c(=O)[nH]2)CCC3)n1`: the IC50 was 0.032 µM.

Take `O=C(NCC(c1cccs1)N1CCOCC1)c1ccc([N+](=O)[O-])o1` (configuration not stated): the half-inhibitory concentration (IC50) is 32 µM.

Turning to `CN1CCN(c2nc(-c3ccc(Cl)cc3)c3c(N)n(C)nc3n2)CC1`, the IC50 was > 50 µM (inactive).

Consider `CC(=O)Nc1ccc(-c2ccnc(Nc3cccc(C#N)c3)n2)cc1`, for which the IC50 was 40 µM.

In the case of `Cn1c(CN2CCN(c3ncc(C(F)(F)F)cc3Cl)CC2)nc2ccncc21`, the IC50 is 5 µM.

Turning to `Cc1ccc(CNC2CCN(C[C@@H]3Cn4c(=O)ccc5ccc(=O)n3c54)CC2)cc1F`, the IC50 is > 50 µM (inactive).

On to `CS(=O)(=O)c1ccccc1C(=O)N(Cc1ccccc1)c1ccccc1`, for which the IC50 is 16 µM.

Regarding `Cn1nccc1-c1cc(OC(CN)c2ccccc2)cnc1-c1ccco1` (configuration not stated), the IC50 is > 50 µM (inactive).

In the case of `COc1ccc(S(=O)(=O)NC(C)C)cc1Nc1ncc(-c2cccc(F)c2)cn1`, the IC50 was 6.3 µM.

As to `O=S(=O)(NCC(c1cccnc1)N1CCN(c2ccc(F)cc2)CC1)c1cccs1` (configuration not stated), the IC50 is > 50 µM (inactive).

Take `Cc1nc(-c2nc(NCc3ccc(Cl)cc3)c3cccnc3c2O)n[nH]1`: the IC50 was 2 µM.

On to `Cc1ccc2c(c1)SC(C(=O)Nc1n[nH]c(-c3ccccn3)n1)C2` (configuration not stated), for which the IC50 is 6.3 µM.

With `Cc1nc(-c2ccc3c(c2)OCO3)sc1C(=O)NCc1ccc2c(c1)OCO2`, the IC50 is 2 µM.

As to `Cc1ccc(S(=O)(=O)Nc2ccc(CN3CCN(C(=O)c4cccc(C)c4)CC3)cc2)cc1`, the IC50 is 25 µM.

As for `CC(c1ccccn1)N(C)Cc1nc2ccccc2n1C(C)C` (configuration not stated), the IC50 was 10 µM.

As to `O=C1c2cnc(N3CCCC3)nc2CN1c1ccc2c(c1)OCO2`, the IC50 is 6.3 µM.

As for `O=C(NCCc1csc(-c2ccc(F)cc2)n1)c1cccs1`, the IC50 was > 50 µM (inactive).

Regarding `CCn1nccc1CN(C)C(=O)C=Cc1ccc(Cl)cc1`, the IC50 was 16 µM.

As for `COc1ccccc1C1CC(c2ccc(NS(C)(=O)=O)cc2)=NN1C(=O)c1cccs1` (configuration not stated), the IC50 was 4 µM.

In the case of `O=C(CN(Cc1ccccn1)Cc1ccccn1)NCc1ccc(-c2csnn2)cc1`, the IC50 is 7.9 µM.

As for `CCCCn1c(=O)c2c(N)onc2n(CCCC)c1=O`, the IC50 was > 50 µM (inactive).

For `COc1cnc2ccc(=O)n(CCN3CCC(NC/C=C/c4cc(F)ccc4F)CC3)c2c1`, the IC50 was 5 µM.

As to `CCS(=O)(=O)c1cccc(C(=O)Nc2nc(-c3ccccn3)cs2)c1`, the IC50 was 1.3 µM.

As for `CC(=O)Nc1ccc(CN2CCC(N3CC(c4ccccc4)(c4ccccc4)OCC3=O)CC2)cc1`, the IC50 was 0.5 µM.

As to `CCCc1cc(N)nc(-c2cc(CCC)cc(N)n2)c1`, the IC50 is 20 µM.

Regarding `COc1ccc(NC(=O)c2ccc(NC(=O)CN(c3ccccc3C)S(C)(=O)=O)cc2)cc1`, the IC50 is > 50 µM (inactive).

Consider `CCN(CC)S(=O)(=O)c1ccc(Cn2nc(C(=O)Nc3ccncn3)c3ccccc32)cc1`, for which the IC50 is > 50 µM (inactive).

`O=C1CCCCCC1(Cc1cnc[nH]1)c1ccc(Cl)cc1Cl` (configuration not stated): the IC50 is > 50 µM (inactive).

`CCOc1ccc(Nc2ccc(S(=O)(=O)N3CCN(C)CC3)cc2[N+](=O)[O-])cc1OCC`: the IC50 is 0.79 µM.

Regarding `O=C(NCc1ccc(-n2cccc2)cc1)c1nc(Cn2ccc([N+](=O)[O-])n2)no1`, the IC50 is > 50 µM (inactive).

Turning to `O=C(NCCc1cccnc1)c1csc(-c2ccccc2)n1`, the IC50 is > 50 µM (inactive).

For `O=C(NC1C(=O)N(c2ccccc2)C1c1cccnc1)c1ccc(Cl)s1` (configuration not stated), the IC50 is 1 µM.

For `Cc1cc(C)cc(NS(=O)(=O)c2cc(-c3cc(C)[nH]n3)ccc2C)c1`, the IC50 was 2.5 µM.

`COc1ccc(-c2cnc(NC(=O)c3ccc(F)cc3)n2C)cc1`: the IC50 is 3.2 µM.

For `Cn1c(CC(=O)NNC(=O)c2ccc3ccccc3n2)nc2ccccc21`, the IC50 is 6.3 µM.

Turning to `CN(Cc1ccc(C(N)=O)cc1)C(c1ccc(F)cc1)c1cccnc1` (configuration not stated), the IC50 is > 50 µM (inactive).

`Nc1nccc(-c2csc(Nc3ccc(Cl)cc3)n2)n1`: the IC50 is 4 µM.

For the compound `COc1ccc(Cl)cc1CC(=O)Nc1n[nH]c(-c2ccccn2)n1`, the IC50 is 4 µM.

Turning to `O=C(COc1ccccc1)Nc1ccccc1C(=O)Nc1nccs1`, the IC50 was > 50 µM (inactive).

Regarding `COc1ccc(NS(=O)(=O)c2cccc(NC(=O)c3cc(F)cc(F)c3)c2)cc1`, the IC50 is 3.2 µM.

For the compound `O=C(Cn1cnc2c(-c3ccccc3)csc2c1=O)N1CCCCC1`, the IC50 was > 50 µM (inactive).

Turning to `CCN(CC)c1nc(N(C)C)nc2c1CN(Cc1ccccc1)CC2`, the IC50 was 7.9 µM.

Consider `c1ccc2sc(Nc3nc4ncccc4[nH]3)nc2c1`, for which the IC50 is 1.6 µM.

On to `CC(C)Oc1ccc(C(=O)Nc2ccc(N3CCOCC3)c(Cl)c2)cc1`, for which the IC50 is > 50 µM (inactive).

On to `CCc1cccc(CC)c1-n1c(SCC(=O)NC(=O)NCc2ccco2)nnc1-c1cccnc1`, for which the IC50 is > 50 µM (inactive).

On to `COc1cc(NC(=O)Nc2cccc(CNC(=O)OC3CCCCC3)c2)ccc1-c1cnco1`, for which the IC50 is > 50 µM (inactive).

Consider `CN1C(=O)c2ccccc2Sc2ccc(NC(=O)NCc3ccco3)cc21`, for which the IC50 was > 50 µM (inactive).

For `CCN(CC)S(=O)(=O)c1ccc(C)c(NC(=O)c2cc(Cl)c3c(c2)OCO3)c1`, the IC50 was > 50 µM (inactive).

For `O=C(NC(c1ccc(Cl)cc1)c1cnccn1)C1CCN(C(=O)Nc2cccc(C(F)(F)F)c2)CC1` (configuration not stated), the IC50 is 20 µM.

For `Nc1nc(-c2ccccn2)nc(-n2nc(-c3cccc(C(F)(F)F)c3)cc2N)n1`, the IC50 was 10 µM.

In the case of `N#Cc1cc(N2CCCC2=O)ccc1Sc1ccccc1CO`, the IC50 was > 50 µM (inactive).

Take `CCN(CC)S(=O)(=O)c1ccc(C(=O)Nc2cc(C)nn2-c2nc(C)c(C)c(=O)[nH]2)cc1`: the IC50 is 0.5 µM.

In the case of `CS(=O)(=O)c1ccc(Nc2nccc(-c3cnn4ncccc34)n2)cc1`, the IC50 is 0.79 µM.

Consider `O=c1ccc2ccc(F)c3c2n1C[C@H]3CN1CCC(NCc2cc3ccccc3o2)CC1`, for which the IC50 is 16 µM.

With `Cc1cc(C)n(-c2nc(NC(C)(C)C)nc(N3CCOCC3)n2)n1`, the IC50 was 6.3 µM.

`O=c1cc(NCCCNCc2cc(C(F)(F)F)cs2)[nH]c2ccccc12`: the IC50 was > 50 µM (inactive).

Turning to `O=C(NC(CO)c1ccc(F)cc1)c1ccc(-c2c[nH]c3ncccc23)s1` (configuration not stated), the IC50 was 32 µM.

`N#Cc1cc(-c2ccnc(Nc3cccc(CN4CCOCC4)c3)n2)ccc1NCCN`: the IC50 was 4 µM.

Turning to `CC1(C)CCC(=Cc2ccc(Cl)cc2)CC1(O)Cn1ccnc1` (configuration not stated), the IC50 is 2.5 µM.

As for `COc1ccc(Nc2nccc(N(C)c3n[nH]c4c(F)cccc34)n2)cc1S(C)(=O)=O`, the IC50 is 25 µM.

Regarding `Clc1ccc(Sc2cnccc2N2CCOCC2)cc1`, the IC50 was 7.9 µM.

On to `O=C1NCCn2ccc(Nc3nc(NC4CCC(O)CC4)ncc3Cl)c21` (configuration not stated), for which the IC50 is 2.5 µM.

Turning to `COc1ccc(-c2nc3ccncc3c(=O)n2CCOc2ccccc2)cc1`, the IC50 is 40 µM.

Take `CN(C)CCOc1ccc(N2CCN(S(=O)(=O)c3ccc(Cl)cc3)CC2)cc1`: the IC50 was 40 µM.

`Clc1ccc(C(CC2CCCCO2)Cn2cncn2)c(Cl)c1` (configuration not stated): the IC50 was 25 µM.

Consider `Cc1ccnc(NS(=O)(=O)c2ccc(NC(=O)c3ccc([N+](=O)[O-])s3)cc2)n1`, for which the IC50 was 4 µM.

`COc1ncc(-c2ccc3nccc(-c4ccncc4)c3c2)cc1NS(=O)(=O)C1CC1`: the IC50 is 1.3 µM.

For `O=C1CN(Cc2ccco2)C2CS(=O)(=O)CC2N1c1ccc(Cl)cc1` (configuration not stated), the IC50 is > 50 µM (inactive).

As for `CC1CCCN(S(=O)(=O)c2ccc(C(=O)Nc3nc(-c4ccccn4)cs3)cc2)C1` (configuration not stated), the IC50 was 1.6 µM.

On to `O=C(c1ccc(O)c(Cl)c1)N1CCN(c2cnccn2)CC1`, for which the IC50 is 0.32 µM.

In the case of `Cc1cc(NC(=O)c2ccc([N+](=O)[O-])s2)ccc1Br`, the IC50 was 3.2 µM.

In the case of `Cc1[nH]n2c(=O)c3c(nc2c1-c1ccc(F)cc1)CCCC3`, the IC50 was 1.3 µM.

Consider `O=C(Nc1ncc([N+](=O)[O-])s1)C1CC1`, for which the IC50 is 40 µM.
